Assay results published in patent publication US9422308B2, “Derivatives of docosahexaenoylethanolamide and uses thereof” (The United States of America, as represented by the …, priority 2012, dated 2016).
Several values for one entry are separate records, joined by “and”; a condition that tells them apart may be missing. Identical values can stand only once.

Assays:
FAAH = target: T1, FAAH (Homo sapiens, UniProt O00519); test: time course FAAH enzyme assay; format: in vitro ADME; conditions: Conc. 1 mM, 0.1 U of FAAH, 37° C., pH=9.0
T1 sequence (O00519 1-579): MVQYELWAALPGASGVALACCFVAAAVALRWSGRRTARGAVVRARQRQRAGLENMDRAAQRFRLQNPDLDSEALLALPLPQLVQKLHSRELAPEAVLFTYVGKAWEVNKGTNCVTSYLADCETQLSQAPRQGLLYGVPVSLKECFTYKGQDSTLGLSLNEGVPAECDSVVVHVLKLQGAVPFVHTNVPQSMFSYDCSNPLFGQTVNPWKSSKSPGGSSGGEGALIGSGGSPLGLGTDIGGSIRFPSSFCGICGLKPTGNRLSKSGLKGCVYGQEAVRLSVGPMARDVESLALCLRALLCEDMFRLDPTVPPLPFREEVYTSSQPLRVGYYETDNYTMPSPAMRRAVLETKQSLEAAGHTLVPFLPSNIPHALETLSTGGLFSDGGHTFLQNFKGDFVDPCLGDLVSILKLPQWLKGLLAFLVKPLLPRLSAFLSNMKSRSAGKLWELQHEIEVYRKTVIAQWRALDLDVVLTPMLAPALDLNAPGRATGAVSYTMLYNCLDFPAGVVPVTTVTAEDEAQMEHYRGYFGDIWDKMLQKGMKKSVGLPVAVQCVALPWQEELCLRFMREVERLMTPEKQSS
Method: Method development: The signal was optimized for each compound by ESI positive or negative ionization mode. A MS2 SIM scan was used to optimize the precursor ion and a product ion analysis was used to identify the best fragment for analysis and to optimize the collision energy.
Analysis: Samples were analyzed by LC/MS/MS using a API 3000 coupled with an Shimadzu HPLC and a CTC PAL chilled autosampler, all […] controlled by Analyst software (ABI). After separation on a C18 reverse phase HPLC column (Agilent, Waters, or equivalent). Mobile phase A was 0.1% AcOH in water. Mobile phase B was 0.1% AcOH in methanol. The flow rate was 0.6 mL/min. The gradient program included a 0.5 min hold at 30% B (the starting conditions), followed by a gradient to 100% B over 2.5 min and a 1 min hold at 100% B. The column was then returned to starting conditions and equilibrated over 1.25 min.
Assay Protocol: Assays were performed at 37° C. at pH=9.0 and involved the use of 0.1 U of FAAH. […] Reaction was terminated after an appropriate time by using protein precipitation treatment with acetonitrile (3:1, v/v).

cortical neurons = test: neurite growth of embryonic mouse neurons (total neurite length/neuron, MAP2 immunostaining); format: cell-based; conditions: for effect with respect to cortical neurite growth as compared to DHA: FIGS. 1, 2; for dosage at which activity is exhibited as compared to DHA and synaptamide: dosages 10^-5 nM to 10 nM, FIG. 1
Method: To obtain embryonic mouse neurons for analysis, pregnant female mice were killed by cervical dislocation after exposure to CO2 inhalation. Embryonic neurons were prepared from E18 or P0 mouse hippocampi or cortex and cultured as described previously (Calderon and Kim, J. Neurochem., 90(4):979-88 (2004), errata in J Neurochem., September; 90(6):1540 (2004)), with slight modification. Briefly, hippocampi or cotices were dissected and dissociated by a method using either 0.25% trypsin (Gibco Invitrogen Corporation, Grand Island, N.Y.) in Hank's balanced salt solution (HBSS) or papain (20-30 U/mL) in dissociation media containing cysteine at 37° C. for 15 min. After the dissociation solution was aspirated off, cells were washed with same volume of HBSS, suspended in neurobasal medium (Gibco) containing 2% B27 supplement (Gibco), 1% glutamine/glutamax mix (1:4) (Gibco), 100 U/ml penicillin (Gibco) and 100 μg/ml streptomycin (Gibco), and seeded on poly-D-lysine chambered slides (Lab-Tek, Naperville, Ill.) at a density of 30,000 cells/cm^2. On the second day after seeding, the cells were treated with fatty acids, synaptamide or one of Compounds 1-50 for 48 h. Docosahexaenoic acid (DHA) and oleic acid (OA) were complexed with fatty acid-free bovine serum albumin (BSA; Sigma, St Louis, Mo.) in the presence of α-tocopherol (Sigma) under an argon atmosphere and darkness to prevent oxidation of the fatty acids. The mixture was mixed with fresh Neurobasal medium containing B27 supplement, glutamine/glutamax mix and antibiotics. Final concentrations of α-tocopherol and BSA in the culture medium were 40 μM and 0.01%, respectively. Alternatively, DHA, OA, synaptamide, or one of Compounds 1-50 were dissolved in DMSO and applied directly together with α-tocopherol. In such case, the final concentration of DMSO is less than 0.005%. All stock solutions were aliquoted under argon and stored at −70° C.
Cells were fixed with […] (Sigma) in PBS (pH 7.4) for 30 min. After permeabilization with 0.1% Triton X-100 (Sigma), cells were blocked for 1 h at 37° C. with PBS containing 10% goat serum (Gibco), and then incubated with the primary antibody against microtubule-associated protein (MAP2, mouse monoclonal 1:250; Sigma). After washing with PBS, cells were incubated with the corresponding Cy2-, Cy3-conjugated secondary antibody (Jackson Immunoresearch Laboratories Inc., West Grove, Pa.). For the nuclear staining, 0.06% 4,6-Diamidino-2-Phenylindole (Sigma) was used. After immunostaining, images were collected using an inverted motorized 1×81 Olympus (Melville, N.Y.) and the neurite length was analyzed with Metamorph software (Molecular Devices Corporation, Downingtown, Pa.). To minimize bias, neurons were evaluated blindly without the knowledge of sample identity. Four to six fields/well were chosen at random and only non-clustered neurons were evaluated to ensure the precision of the measurements. From each well, over 100 neurons were evaluated at 20× magnification for total neurite length/neuron. The data were obtained from triplicate wells and the experiments were repeated at least three times.
FIG. 2 provides graphical results of the data shown in Table 2, expressed as total neurite length per neuron. FIG. 3 provides graphical results of these experiments for compounds 11-50 (having designations as provided in Table 1, above), expressed as relative neurite length as compared to untreated controls. FIG. 4 provides graphical results of these experiments for compounds 1-10 (having designations as provided in Table 1, above), as applied to hippocampal neurons.
An additional assay was performed in which Compounds (A8), 4(A10), and 7(A9) were applied at varying dosages (from 10^−5 nM to 10 nM; 10^−5 nM, 10^−4 nM, 10^−2 nM, 0.1 nM, 1 nM, and 10 nM) as compared to DHA, synaptamide, and oleic acid. Neurite growth was measured at each dosage. Results of this assay are provided at FIG. 1.

[1] = cortical neurons, 10 nM (FIG. 2), 48 h

Structure (SMILES): CCCCC/C=C\C/C=C\C/C=C\C/C=C\CCCC(=O)NCCO [AEA, anandamide]
- % remaining (FAAH; 0 min): 74%
- % remaining (FAAH; 30 min): 1%
- % remaining (FAAH; 60 min): 1%

Structure (SMILES): CC/C=C\C/C=C\C/C=C\C/C=C\C/C=C\C/C=C\CCC(=O)NCCCCO [Compound 2, (4Z,7Z,10Z,13Z,16Z,19Z)—N-(4-hydroxybutyl)docosa-4,7,10,13,16,19-hexaenamide]
- Neurite Length/Neuron (mean) (cortical neurons; [1]): 6.9 μm

Structure (SMILES): CC/C=C\C/C=C\C/C=C\C/C=C\C/C=C\C/C=C\CCC(=O)NCCCO [Compound 3, (4Z,7Z,10Z,13Z,16Z,19Z)—N-(3-hydroxypropyl)docosa-4,7,10,13,16,19-hexaenamide]
- Neurite Length/Neuron (mean) (cortical neurons; [1]): 3.8 μm

Structure (SMILES): CC/C=C\C/C=C\C/C=C\C/C=C\C/C=C\C/C=C\CCC(=O)NCCN1CCOCC1 [Compound 4, (4Z,7Z,10Z,13Z,16Z,19Z)—N-(2-morpholinoethyl)docosa-4,7,10,13,16,19-hexaenamide]
- Neurite Length/Neuron (mean) (cortical neurons; [1]): 20.8 μm
- effect with respect to cortical neurite growth as compared to DHA (cortical neurons; cortical neurons): superior effect
- dosage at which activity is exhibited as compared to DHA and synaptamide (cortical neurons): activity at significantly lower dosages

Structure (SMILES): CC/C=C\C/C=C\C/C=C\C/C=C\C/C=C\C/C=C\CCC(=O)NCCN(C)C [Compound 5, (4Z,7Z,10Z,13Z,16Z,19Z)—N-(2-(dimethylamino)ethyl)docosa-4,7,10,13,16,19-hexaenamide]
- Neurite Length/Neuron (mean) (cortical neurons; [1]): 6.7 μm

Structure (SMILES): CC/C=C\C/C=C\C/C=C\C/C=C\C/C=C\C/C=C\CCC(=O)NCCOC [Compound 6, (4Z,7Z,10Z,13Z,16Z,19Z)—N-(2-methoxyethyl)docosa-4,7,10,13,16,19-hexaenamide]
- Neurite Length/Neuron (mean) (cortical neurons; [1]): 9.1 μm

Structure (SMILES): CC/C=C\C/C=C\C/C=C\C/C=C\C/C=C\C/C=C\CCC(=O)NCCc1ccccc1 [Compound 7, (4Z,7Z,10Z,13Z,16Z,19Z)—N-phenethyldocosa-4,7,10,13,16,19-hexaenamide]
- Neurite Length/Neuron (mean) (cortical neurons; [1]): 41.8 μm
- effect with respect to cortical neurite growth as compared to DHA (cortical neurons; cortical neurons): superior effect
- dosage at which activity is exhibited as compared to DHA and synaptamide (cortical neurons): activity at significantly lower dosages

Structure (SMILES): CC/C=C\C/C=C\C/C=C\C/C=C\C/C=C\C/C=C\CCC(=O)NC(C)(C)CO [Compound 8, (4Z,7Z,10Z,13Z,16Z,19Z)—N-(1-hydroxy-2-methylpropan-2-yl)docosa-4,7,10,13,16,19-hexaenamide]
- Neurite Length/Neuron (mean) (cortical neurons; [1]): 4.5 μm

Structure (SMILES): CC/C=C\C/C=C\C/C=C\C/C=C\C/C=C\C/C=C\CCC(=O)N[C@@H](C)CO [Compound 9, (4Z,7Z,10Z,13Z,16Z,19Z)—N—((S)-1-hydroxypropan-2-yl)docosa-4,7,10,13,16,19-hexaenamide]
- Neurite Length/Neuron (mean) (cortical neurons; [1]): 9.6 μm

Structure (SMILES): CC/C=C\C/C=C\C/C=C\C/C=C\C/C=C\C/C=C\CCC(=O)N[C@H](C)CO [Compound 10, (4Z,7Z,10Z,13Z,16Z,19Z)—N—((R)-1-hydroxypropan-2-yl)docosa-4,7,10,13,16,19-hexaenamide]
- Neurite Length/Neuron (mean) (cortical neurons; [1]): 9.5 μm

Structure (SMILES): CC/C=C\C/C=C\C/C=C\C/C=C\C/C=C\C/C=C\CCC(=O)O [DHA, Docosahexaenoic acid, reference compound]
- Neurite Length/Neuron (mean) (cortical neurons; cortical neurons, DHA 100 nM (FIG. 2), 48 h): 14.5 μm

Structure (SMILES): CC/C=C\C/C=C\C/C=C\C/C=C\C/C=C\C/C=C\CCC(=O)NCCO [Synaptamide, Docosahexaenoylethanolamide]
- Neurite Length/Neuron (mean) (cortical neurons; [1]): 29.3 μm
- Neurite Length/Neuron, individual values (cortical neurons; cortical neurons, 10 nM (FIG. 2), 48 h, three individual values): 33.1 μm and 29.2 μm and 25.5 μm
- % remaining (FAAH; 0 min): 100%
- % remaining (FAAH; 30 min): 5%
- % remaining (FAAH; 60 min): 1%
